In patent EP0423133B1, “ENZYMATIC RESOLUTION SYSTEMS AND COMPOUNDS USEFUL IN THE SYSTEMS AND THEIR REPARATIONS” (priority 1988, dated 1989):
Structures can show the parent of a compound that is named as a salt.

How the values were obtained:
Protease XXIII = experiment: Homogeneous aqueous enzymatic resolution (ester hydrolysis) with enzyme A; type: biochemical, Aspergillus oryzae; conditions: 10.0 mmol ester in 100 ml 0.2 M phosphate buffer pH 7.0, 100 mg enzyme A, 20-22 °C, 20 hours
Method: The enzymes used in Examples 6.2.1.1-6.2.1.17, 6.2.1.20-6.2.1.21, 6.2.1.23-6.2.1.28, 6.2.2.7, and 6.2.3.1-6.2.3.5 that follow were all proteases commercially available from Sigma Chemical Co., St. Louis, MO. […] For examples 6.2.2.5-6.2.2.6, Candida lipase obtained from Genzyme Corporation was used.
No further purification was performed.
The aqueous layer was retained.

[1] = target: T1, Protease VIII: "Subtilopeptidase A" (Bacillus licheniformis, UniProt P00780); experiment: Homogeneous aqueous enzymatic resolution (ester hydrolysis) with enzyme B; type: biochemical; conditions: 10.0 mmol ester in 100 ml 0.2 M phosphate buffer pH 7.0, 100 mg enzyme B, 20-22 °C, 20 hours
T1 sequence (P00780 106-379): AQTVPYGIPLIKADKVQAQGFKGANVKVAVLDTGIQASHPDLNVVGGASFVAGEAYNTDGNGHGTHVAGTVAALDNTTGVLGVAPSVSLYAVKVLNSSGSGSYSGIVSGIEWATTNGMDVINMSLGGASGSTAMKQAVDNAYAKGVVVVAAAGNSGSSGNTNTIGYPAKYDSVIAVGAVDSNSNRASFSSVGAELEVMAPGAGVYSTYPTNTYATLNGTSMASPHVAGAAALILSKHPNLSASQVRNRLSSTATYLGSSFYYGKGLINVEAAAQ

Protease XVI = experiment: Homogeneous aqueous enzymatic resolution (ester hydrolysis) with enzyme C; type: biochemical, Bacillus subtilis; conditions: 10.0 mmol ester in 100 ml 0.2 M phosphate buffer pH 7.0, 100 mg enzyme C, 20-22 °C, 20 hours
Excerpt: (§1) The enzymes used in Examples 6.2.1.1-6.2.1.17, 6.2.1.20-6.2.1.21, 6.2.1.23-6.2.1.28, 6.2.2.7, and 6.2.3.1-6.2.3.5 that follow were all proteases commercially available from Sigma Chemical Co., St. Louis, MO. These proteases are listed in each example using the Sigma numbering system, which is summarized below: • Protease VIII: "Subtilopeptidase A", product P-5380 (also known as subtilisin Carlsberg) • Protease XIV: from Streptomyces griseus, product P-5147 • Protease XVI: from Bacillus subtilis, product P-8775 • Protease XXIII: from Aspergillus oryzae, product P-4032 • Protease XXVII: "Nagarse", product P-4789 • Protease XXIV: bacterial protease, product P-8038 An additional protease enzyme, which was designated Prozyme 6, was obtained from the Amano Enzyme Corporation and used in Examples 6.2.1.18-6.2.19, 6.2.1.22, 6.2.1.29-6.2.1.30 and 6.2.2.1-6.2.2.4 described below. A pig liver esterase was used in Example 6.21.11; this enzyme, obtained from Sigma Chemical Company, was designated as their product E-3128. For examples 6.2.2.5-6.2.2.6, Candida lipase obtained from Genzyme Corporation was used. Finally, Candida lipase, product L-1754, obtained from Sigma Chemical Co. was used in Example 6.2.2.7.

[2] = target: T2, Protease XXVII: "Nagarse" (Bacillus amyloliquefaciens, UniProt P00782); experiment: Homogeneous aqueous enzymatic resolution (ester hydrolysis) with enzyme D; type: biochemical; conditions: 10.0 mmol ester in 100 ml 0.2 M phosphate buffer pH 7.0, 100 mg enzyme D, 20-22 °C, 20 hours
T2 sequence (P00782 108-382): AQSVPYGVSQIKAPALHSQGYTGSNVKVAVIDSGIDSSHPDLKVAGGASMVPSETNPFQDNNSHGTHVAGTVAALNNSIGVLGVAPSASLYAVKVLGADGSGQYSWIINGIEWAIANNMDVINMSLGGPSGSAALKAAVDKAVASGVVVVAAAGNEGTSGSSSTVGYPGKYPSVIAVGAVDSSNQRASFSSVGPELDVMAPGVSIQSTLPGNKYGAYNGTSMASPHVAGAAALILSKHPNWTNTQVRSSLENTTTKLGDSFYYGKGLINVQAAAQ
Excerpt: as §1

Prozyme 6 [3] = experiment: Homogeneous aqueous enzymatic resolution (ester hydrolysis) with enzyme F; type: biochemical, Aspergillus oryzae; conditions: for Conversion in Homogeneous Aqueous Reaction System: 30 °C
Prozyme 6 [4] = experiment: Asymmetric hydrolysis in an extractive dispersion reactor with enzyme F; type: biochemical, Aspergillus oryzae; conditions: 3.38 gm ester in 100 ml 0.2 M sodium phosphate buffer pH 7.0 and 100 ml hexane, 100 mg Prozyme 6, 3.5 hours at room temperature, vigorous stirring
Method: In this Example, the hexane was dispersed in the reaction vessel to extract the inhibitory ibuprofen acid as it is formed. The
reaction was started by adding 100 mg of the protease from the fungus Aspergillus oryzae (from Amano Enzyme Corporation, Prozyme 6, 60,000 units per mg of solid).
After 3.5 hours at room temperature with vigorous stirring, the solution was acidified to pH 2 and extracted with 2 volumes of hexane. The aqueous phase was saved for subsequent workup. The hexane phase was dried over MgS04 and evaporated to dryness. The resolved ibuprofen product so recovered consisted of 490 mg of white powder, indicating 24% conversion. The optical rotation was -0.568 (c = 1.015 in ethanol), indicating the R isomer of ibuprofen.

Prozyme 6 [5] = experiment: Asymmetric hydrolysis in an extractive membrane reactor with enzyme F; type: biochemical, Aspergillus oryzae; conditions: for enantiomeric excess: chiral HPLC, enzyme in aqueous phase only, 6.3 hours
[6] = test system: lipase from Candida cylindracea (Lipase OF); experiment: Activity of the carrier lipase against the ester; type: biochemical; conditions: Meito Sangyo Company

For `CC(C)Cc1ccc(C(C)C(=O)OCS(=O)(=O)O)cc1` (racemic) [Compound 1, Sodium Salt of 4-Sulfomethyl Ester of 2-(4-Isobutylphenyl) propanoic Acid], the “% CONVERSION” value (Protease XXIII) was 37.9%, the “% e.e.” value (Protease XXIII; acid product, R) was over 99% and the “% CONVERSION” value [1] was 29.1%. For the same compound, the “% e.e.” value ([1]; acid product, R) was 44.6%, the “% CONVERSION” value (Protease XVI) was 27.2% and the “% e.e.” value (Protease XVI; acid product, R) was 70.7%. The “% CONVERSION” value [2] was 34.0%, the “% e.e.” value ([2]; acid product, R) was 37.7% and the “conversion of racemic ester to acid” value (Prozyme 6 [3]; 3.22 gm ester in 100 ml 0.2 M sodium phosphate buffer pH 7.0, 100 mg protease (F), 20 hours at room temperature) was 45%. The conversion (Prozyme 6 [3]; After 6.49 hours at 30 °C, 0.5 M ester in 325 ml 0.1 M sodium phosphate buffer pH 7.0, 3 gm enzyme (F)) was 37.7%, the “Conversion in Homogeneous Aqueous Reaction System” value (Prozyme 6 [3]; Time 6.75 hrs, 0.5 M ester in 325 ml 0.1 M sodium phosphate buffer pH 7.0, 3 gm enzyme (F)) was 37.7% and the “Conversion in Homogeneous Aqueous Reaction System” value (Prozyme 6 [3]; Time 23.1 hrs, 0.5 M ester in 325 ml 0.1 M sodium phosphate buffer pH 7.0, 3 gm enzyme (F)) was 40.9%. The conversion (Prozyme 6 [4]) was 24%, the enantiomeric excess (Prozyme 6 [5]; R ibuprofen acid product) was 99.3% and the enantiomeric excess (Prozyme 6 [5]; S ibuprofen from hydrolysis (pH 12) of the unconverted ester) was 98.9%. For the same compound, the “conversion of the racemic ester to the acid” value (Prozyme 6 [5]; enzyme in aqueous phase and in membrane pores (polyacrylonitrile fibers, 80% cyclohexane:20% toluene), 0.5 M ester, 3 gm protease (F), 6.75 hours at 30 °C) was 48.3%, the “conversion of the racemic ester to ibuprofen acid” value (Prozyme 6 [5]; enzyme in aqueous phase only (cellulose dialysis fibers, hexane), 32.51 gm ester in 1000 ml 0.1 M sodium phosphate buffer pH 7.0, 2 gm protease (F), 6.3 hours at room temperature) was 50% and the “activity of the enzyme against the ester” value [6] was “inactive”.
